Measured values reported in US20060287248A1, “Asymmetric dosing methods” (Schering Corporation, priority 2005, published 2006).

What was measured:
[1] = Serum levels of compound Ia on day 14 in healthy subjects, BID vs TID regimen (FIG. 2); type: in vivo, human; conditions: 400 mg TID; for serum/plasma level before the morning dose (time zero), 8 hours after the previous dose: healthy subjects, compared with 8 hours after the morning dose
Protocol: Healthy subjects were put on one of two regimens of 400 mg BID or 400 mg. TID of a compound of Formula Ia. Blood samples were taken on day 14 immediately prior to the morning dose (time zero) and at 12 hours post-dose (for the BID regimen) or 8 hours post-dose (for the TID regimen).

HCV = test: Viral load in HCV patients on regimens of compound of Formula Ia (reverse transcriptase PCR, FIG. 1); type: in vivo, human; conditions: Patients with HCV, 200 mg BID, 400 mg BID, 400 mg TID
Text: FIG. 1 is a graph of mean viral load measured over time with administration of various doses and regimens of compound of Formula Ia; and
Studies of viral activity in HCV infected patients indicate that viral activity and resulting viral load are influenced by the circadian rhythm of the patient. […] Thus, in one aspect of the invention, the one or more discrete dosages are adjusted in amount to provide a highest dose or doses at a time or times corresponding to the time interval when hepatitis-C virus replication is highest.
Patients with HCV were put on various treatment regimens including 200 mg. BID, 400 mg. BID, and 400 mg. TID of a compound of Formula Ia, to determine efficacy of the regimens in reducing viral load. Blood samples were taken at predose and at 0.25, 0.5, 0.75, 1, 1.5, 2, 3, 4, 5, 6, 8, 10, 12, 18, 24, 36, 48, 72, 144 hr post dose using reverse transcriptase PCR methods.

melanoma A375 tumors = melanoma A375 tumors implanted into the left ventricle of the heart; cited from earlier work

SMILES | plasma level 8 hours after the morning dose ([1]; compared with level before the morning dose) | serum/plasma level before the morning dose (time zero), 8 hours after the previous dose [1] | serum/plasma level before the morning dose (time zero), 8 hours after the previous dose ([1]; listed as formula la) | pattern of viral load decline over time (HCV) | pattern of viral load decline over time (HCV; listed as Formula la) | viral load as measured in serum (HCV; predose to 144 hr post dose) | distant bone metastasis to the femur and tibia (melanoma A375 tumors)
CC(C)(C)NC(=O)N[C@H](C(=O)N1C[C@H]2[C@@H]([C@H]1C(=O)NC(CC1CCC1)C(=O)C(N)=O)C2(C)C)C(C)(C)C (stereo partly drawn) [Formula Ia, (1R,5S)-N-[3-Amino-1-(Cyclobutylmethyl)-2,3-Dioxopropyl]-3-[2(S)-[[[(1,1-Dimethylethyl)Amino]Carbonyl]Amino]-3,3-Dimethyl-1-Oxobutyl]-6,6-Dimethyl-3-Azabicyclo[3.1.0]Hexan-2(S)-Carboxamide] | much lower | significantly higher at time zero | highest in the morning | exhibited cyclical fluctuations corresponding to the patients' sleep/wake cycles | the decline in viral load is cyclical | declined with all regimens | 
CN(C)C(=O)[C@H](Cc1ccccc1)NC(=O)[C@H]1O[C@@H]1C(=O)NCCc1ccccn1 [CLIK-148] |  |  |  |  |  |  | reduced distant bone metastasis
